Reference: patent publication US20100093670A1, “Compounds for the treatment of angiogenesis” (priority 2006, published 2010)
“Also recorded” adds a separate entry of the source.

Tests used:
Type in all cases: cell-based, human
HUVEC cells [1] = test: HUVEC cell morphology (shrinkage), time lapse imaging
Description: HUVEC cells (ATCC, VA) (passage number 4) were cultured in EGM2 medium (Cambrex, Mass.) on 24-well plates and time lapse imaging was performed in a cell culture system mounted on an inverted microscope supplied with 5% CO2. The temperature was kept at 35° C. Images were taken every 60 sec using 20× objective (FIGS. 1-3) or every 30 min using 2× objective (FIG. 4) for up to 90 hr. FIGS. 1-3 show results from three time points of treatment: 0, 50, 100 min. […] Most shrunken cells were at cell cycle interphase but not mitotic stage, and still moving on the culture surface, as observed in time-lapse movies (data not shown). The shrinking effect caused by Compound 249 (and CA4) is not identical to the apoptotic effect in mitotic cells after microtubule depolymerization.

HUVEC cells [2] = test: HUVEC migration, wound healing assay with time-lapse imaging; conditions: for inhibition of HUVEC migration to the blank area: 24, 48 and 72 hr after treatment, compared to DMSO
From the text: Using the above described time-lapse culture system, a wound healing assay was used to analyze the effect of Compound 249 and CA4 on HUVEC cells migration. Confluent HUVEC cultures were scraped similarly to make a blank area. Migration of remaining cells under different treatment was imaged at the same time to generate time-lapse image sequences. Time-lapse movies were further analyzed to calculate the number of cells that migrated to the blank area. In FIG. 4, the gray lines show the front line of cells after scraping and the red lines show the front lines of cells after migration at 24, 48 and 72 hr after treatment.

[3] = tested on: VE-cadherin junctions of HUVEC cells; test: VE-cadherin junctions of HUVEC cells, immunostaining; conditions: 24 hrs
Description: It was thought that these phenotypic changes might be associated with alterations of endothelial cell junctions. To determine if Compound 249 induced disengagement of HUVEC cell junctions, VE-cadherin junctions of HUVEC cells were examined. HUVEC cells were treated with DMSO or Compound 249 (0.1, 1, or 10 nM) for 24 hrs and fixed for immunostaining. DMSO concentration was 1:100 for all treatment. To boost the immunofluorescence signal, cells were stained with a mixture of two polyclonal anti-human VE-cadherin Abs (1:1 mixed, obtained from Amersham Biosciences, N.J., and Santa Cruz Biotechnology, Calif.) followed by staining with a mixture of fluorescent secondary antibodies. […] Non-DMSO treated cells gave a similar result to those with DMSO treatment (data not shown). With 1 nM Compound 249 treatment, VE-cadherin staining was reduced (red arrow in Compound 249 1 nM) compared to that in DMSO or Compound 249 0.1 nM treatment. […] In addition, the potent effect of Compound 249 on microtubule cytoskeletons can also contribute strongly to the cell-cell junction disruption.

[4] = 1 nM, compared to DMSO treatment

| Structure (SMILES) | HUVEC cell shrinkage / morphological change (HUVEC cells [1]; [4]) | HUVEC cell shrinkage / morphological change (HUVEC cells [1]; 10 nM) | absolute migrated cell numbers (quantitative analysis, FIG. 5) (HUVEC cells [2]; 1 nM) | inhibition of HUVEC migration to the blank area (HUVEC cells [2]; 1 nM) | absolute migrated cell numbers (quantitative analysis, FIG. 5) (HUVEC cells [2]; 5 nM) | inhibition of HUVEC migration to the blank area (HUVEC cells [2]; 5 nM) | time of treatment within which HUVEC cell shrinkage was caused (HUVEC cells [1]; 1 nM) [min] | time of treatment within which HUVEC cell shrinkage was induced (HUVEC cells [1]; 1 nM) [h] | effect on HUVEC cell morphology (shrinkage) compared with CA4 (HUVEC cells [1]; comparison Compound 249 vs CA4) | inhibitory effect on HUVEC migration in vitro (overall) (HUVEC cells [2]) | time after treatment at which the difference in migration inhibition between Compound 249 and CA4 was noticeable (FIG. 6) (HUVEC cells [2]; 1 nM) [h] | inhibition of HUVEC migration compared with CA4 (HUVEC cells [2]; comparison Compound 249 vs CA4) | disengagement of VE-cadherin junctions ([3]; 1 nM) | VE-cadherin staining at cell-cell junctions ([3]; 1 nM, compared to DMSO or 0.1 nM) | VE-cadherin staining at cell-cell junctions ([3]; 10 nM) | disengagement of cell junctions ([3]; 10 nM) |
| --- | --- | --- | --- | --- | --- | --- | --- | --- | --- | --- | --- | --- | --- | --- | --- | --- |
| COc1ccc(/C=C\c2cc(OC)c(OC)c(OC)c2)cc1O [CA4, Combretastatin A4, reference compound] | did not cause obvious morphological changes | caused a similar change on HUVEC cells | much less of an effect on HUVEC migration | did not block the migration event | similar | significantly blocked migration |  |  |  |  |  |  |  |  |  |  |
| COc1ccc(-c2cnoc2-c2cc(OC)c(OC)c(OC)c2)cc1N [Compound 249, 2-methoxy-5-(5-(3,4,5-trimethoxyphenyl)isoxazol-4-yl)aniline] | Induces HUVEC Cell Shrinkage; also recorded: caused HUVEC cell shrinkage; also recorded: induced shrinkage of HUVEC cells |  | similar | migration inhibition; also recorded: Inhibits HUVEC Migration; also recorded: significantly blocked migration; also recorded: inhibited HUVEC cell migration | similar | significantly blocked migration | ≤ 50 | ≤ 1 | stronger effect on both shrinkage and migration than CA4; also recorded: more potent effect on HUVEC cell morphology than CA4 | potent inhibitory effect | ≤ 4 | stronger effect on both shrinkage and migration than CA4 | some of the VE-cadherin junctions were disengaged | reduced | significantly abolished VE-cadherin staining | most of the cell junctions were disengaged |
